Source: patent publication US20230121771A1, “A PHARMACEUTICAL COMBINATION OF AN ARTEMISININ COMPOUND, 5-AMINOLEVULINIC ACID OR METHYL-5-AMINOLEVULINIC ACID AND A CHEMOTHERAPEUTIC AGENT” (JLP Health GmbH, priority 2020, published 2023)
Starred links: 1 amine or outer side, 2 acyl side, 3 side chain; linkers in the order of their positions; H or OH if unused. Positions of bridges follow the written chain, without caps; N, C: chain ends. Non-standard residues stand in square brackets, D forms with d. Residues, ends and D or L forms follow the SMILES beside them. Chains are numbered I, II in the order given. Actinocin(9to1) = Cc1c2oc3c(C)ccc(C(=O)[*:1])c3nc-2c(C(=O)[*:2])c(N)c1=O; NMeV = CN[C@H](C(=O)O)C(C)C; Sar = CNCC(=O)O

Tests used:
[1] = tested on: cancer cell lines originating from other tissues; test: 6-day cell survival assay, cancer cell lines originating from other tissues (summary); assay type: cell-based; settings: lung, liver, breast, pancreas lines
Description: Cell survival assays (FIGS. 12-19) were performed in 96-well plates in technical duplicates. Treatments started 24 hours post cell plating and lasted for 6-days prior to cell viability assessment with the Cell Titer Glo 2.0 Luminescent assay (Promega, G9242).

mouse ESCs [2] = test: Cell survival of artemisinin treated mouse embryonic stem cells (Alamar Blue, 48 h); assay type: cell-based; settings: artemisinin combined with acifluorfen or 5-ALA (0.5 mM)
Description: For dosage responses, cells were seeded in 96-wells (25.000/ 96-well, in triplicate -where indicated) and subjected to compounds for 48 h. Cell viability was assessed using automated cell counting (high-throughput flow cytometry), Alamar Blue staining (Invitrogen, DAL1100) or CellTiter-Glo Luminescent Assay (Promega, G7570, according to the manufacturer’s protocol) respectively.

[3] = tested on: colorectal cancer (CRC) cells; settings: reported in literature; cited from earlier work
[4] = tested on: neuroblastoma cells (SHSY5Y), Jurkat and HL-60 cells; test: ROS levels by Dihydroethidium (DHE) staining and flow cytometry in cell lines; assay type: cell-based; settings: artemisinin alone; Jurkat and HL-60 cells, 48 h
Description: Treated cells were collected, washed with 1x HBSS (without Ca2+ and Mg2+), incubated with 1mM DHE (Dihydroethidium (Hydroethidine), Invitrogen, D11347) in 1x HBSS for 45 min at 37° C., washed twice and counterstained with DAPI or a viability dye (eBioscience™ Fixable Viability Dye eFluor™ 780, 65-0865-18) for 10 min on ice. Cells were then collected, strained and analysed using flow cytometry for DHE in the red fluorescent spectrum (PE channel).

mouse ESCs [5] = test: Competitive growth assay of wild-type and knockout sister ESC clones in presence of artemisinin; assay type: cell-based; settings: mixed labelled cells, artemisinin exposure, flow cytometry
Description: Haploid ESCs harbouring gene traps in nomic introns were seeded at low density in normal ESC growth medium and infected for 12 h with two viruses, one encoding mCherry plus Cre recombinase and the other coding for GFP, both together with puromycin (Invivogen, ant-pr-1). Infected cells were selected (final concentration of puromycin, 1 µg/ml) after 24 h and expanded. Ratios of GFP- to mCherry/Cre-expressing cells in the presence and absence of artemisinin were determined using high-throughput flow cytometry (BD LSRFortessa HTS Cell Analyzer).

[6] = tested on: human glioblastoma-like neoplastic organoid model; test: Compound profiling in human glioblastoma-like neoplastic organoid model (p53, NF1, PTEN mutated); assay type: cell-based; settings: compound alone
Description: Tumor initiation was induced by either oncogene amplification, using a Sleeping Beauty (SB) transposase, or mutation of tumor suppressor genes, using the CRISPR-Cas9 system in day 10 old embryoid bodies (EBs). Plasmids carrying the transposase as well as GFP and the desired oncogenes or expressing Cas9 nuclease were introduced by electroporation. In brief, a mixture of 1 μg DNA and 100 μl nucleofector solution was added to 10 EBs and transferred to a nucleofection cuvette. The Lonza Nucleofector 2b and the A-023 program were used for electroporation/ nucleofection. […] Cerebral tumor organoids were treated with different compounds and the survival and growth of transformed as well as untransformed neurons was monitored. Fluorescence labeling of tumor cells allowed clear distinguishability of transformed cells as compared to non-labeled throughout the experiment using brightfield microscopy, as well as fluorescence imaging. The transformed tumor tissue and untransformed neurons within the same organoid was monitored using fluorescence imaging, as well as brightfield microscopy throughout the experiment. At the endpoint of the treatment (d5 or d7 respectively), the number of GFP-positive cells was assessed by flow cytometry. […] Brightfield and green fluorescence images were taken from the same area. […]

[7] = tested on: human cerebral tumor organoids (CNS-PNET); test: Compound profiling in CNS-PNET cerebral tumor organoids (GFP-positive tumor cells); assay type: cell-based; settings: very high concentrations, compound alone
Description: Tumor initiation was induced by either oncogene amplification, using a Sleeping Beauty (SB) transposase, or mutation of tumor suppressor genes, using the CRISPR-Cas9 system in day 10 old embryoid bodies (EBs). Plasmids carrying the transposase as well as GFP and the desired oncogenes or expressing Cas9 nuclease were introduced by electroporation. In brief, a mixture of 1 μg DNA and 100 μl nucleofector solution was added to 10 EBs and transferred to a nucleofection cuvette. The Lonza Nucleofector 2b and the A-023 program were used for electroporation/ nucleofection. Thereafter, EBs were transferred into 10 cm dishes containing differentiation media containing vitamin A and embedded into Matrigel 24 hours later. Two different types of tumors were initiated {Bian:2018gs}: Central nervous system primitive neuroectodermal tumors (CNS-PNET) were induced by the overexpression of Myc. Glioblastoma-like tumor group 2 (GBM-2) was caused by mutagenesis of the tumor suppressor genes p53, NF1 and PTEN. All plasmids were designed by Shan Bian {Bian, S. et al. Genetically engineered cerebral organoids model brain tumor formation. Nat. Methods 15, 631-639 (2018)}. Cerebral tumor organoids were treated with different compounds and the survival and growth of transformed as well as untransformed neurons was monitored. Fluorescence labeling of tumor cells allowed clear distinguishability of transformed cells as compared to non-labeled throughout the experiment using brightfield microscopy, as well as fluorescence imaging. The transformed tumor tissue and untransformed neurons within the same organoid was monitored using fluorescence imaging, as well as brightfield microscopy throughout the experiment. At the endpoint of the treatment (d5 or d7 respectively), the number of GFP-positive cells was assessed by flow cytometry. Cerebral (tumor) organoids were enzymatically and mechanically dissociated using 1x trypsin, 35-45 min incubation at 37° C., and gentle shaking. […] Single cells in suspension were counterstained with DAPI or a viability dye (eBioscienceTM Fixable Viability Dye eFluorTM 780, 65-0865-18), and analysed using flow cytometry (BD LSRFortessa HTS Cell Analyzer). The amounts of GFP-positive cells were analyzed. […] Brightfield and green fluorescence images were taken from the same area. Additionally, for image analyses, the Celldiscoverer 7 (Zeiss), a fully integrated high-end automated live cell imaging system, was used. Cerebral organoids were fixed in 4% PFA (room temperature, 1 h), incubated with 30% sucrose (4° C., o/n), OCT (Tissue-tek OCT Compound, […], 4583) embedded and 20 μm sections were cryostat cut (-12/-14° C.). […] Fluorescence Mounting Medium (Dako, S302380) was used for mounting the sample slides. […]

With `O=c1[nH]cc(F)c(=O)[nH]1` [5-fluorouracil] the “effect of the chemotherapeutic agent when combined with the double combination ART/DHA/ARS with 5-ALA” value [1] was “enhances”.
With `O=C(O)c1cc(Oc2ccc(C(F)(F)F)cc2Cl)ccc1[N+](=O)[O-]` [acifluorfen] the “susceptibility to artemisinin (cell survival)” value (mouse ESCs [2]) was “increased resistance to artemisinin”.
In the case of `C[C@@H]1CC[C@H]2[C@@H](C)C(=O)O[C@@H]3O[C@@]4(C)CC[C@@H]1[C@]32OO4` [artemisinin], the cytotoxicity [3] is listed as “specific cytotoxicity”, the “ROS levels (DHE)” value [4] is listed as “increased levels of ROS” and the “relative growth of wild-type (mCherry_Cre) and knockout (GFP) sister cell clones” value (mouse ESCs [5]) is listed as “selective loss of wild-type (mCherry_Cre) and strong expansion of knockout cells (GFP)”. The “survival of untransformed and transformed cells” value [6] was “little effect on the survival of untransformed cells as well as transformed cells” and the “growth of GFP-positive tumor organoids” value [7] was “notable growth inhibition”.
With `N.N.O=C([O-])C1(C(=O)[O-])CCC1.[Pt+2]` [carboplatin] the “effect of the chemotherapeutic agent when combined with the double combination ART/DHA/ARS with 5-ALA” value [1] was “enhances”.
In the case of `N.N.[Cl][Pt][Cl]` [cisplatin], the “effect of the chemotherapeutic agent when combined with the double combination ART/DHA/ARS with 5-ALA” value [1] is reported as “enhances”.
With `Cc1c2oc3c(C)ccc(C(=O)N[C@@H]4C(=O)N[C@H](C(C)C)C(=O)N5CCC[C@H]5C(=O)N(C)CC(=O)N(C)[C@@H](C(C)C)C(=O)O[C@@H]4C)c3nc-2c(C(=O)N[C@@H]2C(=O)N[C@H](C(C)C)C(=O)N3CCC[C@H]3C(=O)N(C)CC(=O)N(C)[C@@H](C(C)C)C(=O)O[C@@H]2C)c(N)c1=O` [dactinomycin] (I: T[dV]P[Sar][NMeV] / II: T[dV]P[Sar][NMeV]; ester I:1-I:C, II:1-II:C; linker I:N-II:N via Actinocin(9to1)) the “effect of the chemotherapeutic agent when combined with the double combination ART/DHA/ARS with 5-ALA” value [1] was “enhances”.
With `COc1cccc2c1C(=O)c1c(O)c3c(c(O)c1C2=O)C[C@@](O)(C(=O)CO)C[C@@H]3O[C@H]1C[C@H](N)[C@H](O)[C@H](C)O1` [doxorubicin] the “effect of the chemotherapeutic agent when combined with the double combination ART/DHA/ARS with 5-ALA” value [1] was “enhances”.
For `COc1cccc2c1C(=O)c1c(O)c3c(c(O)c1C2=O)C[C@@](O)(C(=O)CO)C[C@@H]3O[C@H]1C[C@H](N)[C@@H](O)[C@H](C)O1` [epirubicin], the “effect of the chemotherapeutic agent when combined with the double combination ART/DHA/ARS with 5-ALA” value [1] was “enhances”.
With `COC(=O)C[C@](O)(CCCC(C)(C)O)C(=O)O[C@@H]1C(OC)=C[C@]23CCCN2CCc2cc4c(cc2[C@H]13)OCO4` [homoharringtonin] the “effect of the chemotherapeutic agent when combined with the double combination ART/DHA/ARS with 5-ALA” value [1] was “enhances”.
In the case of `O=NN(CCCl)C(=O)NC1CCCCC1` [lomustine], the “effect of the chemotherapeutic agent when combined with the double combination ART/DHA/ARS with 5-ALA” value [1] is reported as “enhances”.
For `CC(C)[C@]12O[C@H]1[C@@H]1O[C@]13[C@]1(O[C@H]1C[C@H]1C4=C(CC[C@@]13C)C(=O)OC4)[C@@H]2O` [triptolide], the “effect of the chemotherapeutic agent when combined with the double combination ART/DHA/ARS with 5-ALA” value [1] was “enhances”.
In the case of vinorebine, the “effect of the chemotherapeutic agent when combined with the double combination ART/DHA/ARS with 5-ALA” value [1] is reported as “enhances”.
